Measured values published in patent publication US20150140089A1 (MetronomX, priority 2012, published 2015).
Where “and” joins values, the source holds several entries; their conditions need not be identical. Equal entries are not always repeated. Where two headings read alike, the source gives them in different places.

Columns and labels:
[1] = 2% w/v SDS in water
[2] = In vitro release (dissolution) using 2% w/v SDS in deionized water; format: physicochemical
Procedure: (§1) At specified time intervals (0.5, 1, 2, 4, 8, 10, and 24 h), 2 ml of sample was collected from each basket and replaced with the same volume of buffer.
Dissolution of each formulation was performed in duplicate.

[3] = blood level of active compound; cited from earlier work
[4] = In vitro release (dissolution), USP apparatus II, 5% SDS in 0.1N HCl; format: physicochemical; conditions: 0.1N HCl with 5% SDS; in 24 hr
Procedure: as §1

**Q.** For `CC1CS(=O)(=O)CCN1/N=C/c1ccc([N+](=O)[O-])o1` (stereo not drawn) [Nifurtimox, 3-methyl-4-(5′-nitrofurfurylidene-amino)-tetrahydro-4H-1,4-thiazine-1,1-dioxide], which “Estimated Amount of Nifurtimox” value ([1]; 25 °C, 0 hr) is on record?
**A.** The value was 344.22 µg/mL.

**Q.** And the “Estimated Amount of Nifurtimox” value ([1]; 25 °C, 4 hr)?
**A.** Its value is 339.96 µg/mL.

**Q.** And the “Estimated Amount of Nifurtimox” value ([1]; 25 °C, 8 hr)?
**A.** Its value is 345.38 µg/mL.

**Q.** And the “Estimated Amount of Nifurtimox” value ([1]; 25 °C, 12 hr)?
**A.** The value was 346.21 µg/mL.

**Q.** And the “Estimated Amount of Nifurtimox” value ([1]; 25 °C, 16 hr)?
**A.** The value was 346.94 µg/mL.

**Q.** And the “Estimated Amount of Nifurtimox” value ([1]; 25 °C, 20 hr)?
**A.** Its value is 344.92 µg/mL.

**Q.** And the “Estimated Amount of Nifurtimox” value ([1]; 25 °C, 24 hr)?
**A.** The value was 341.80 µg/mL.

**Q.** And the “Estimated Amount of Nifurtimox” value ([1]; 37 °C, 1 hr)?
**A.** The value was 338.78 µg/mL.

**Q.** And the “Estimated Amount of Nifurtimox” value ([1]; 37 °C, 2 hr)?
**A.** Its value is 339.74 µg/mL.

**Q.** What about the “Estimated Amount of Nifurtimox” value ([1]; 37 °C, 3 hr) of the same compound?
**A.** The value was 338.78 µg/mL.

**Q.** And the “Estimated Amount of Nifurtimox” value ([1]; 37 °C, 24 hr)?
**A.** The value was 343.76 µg/mL and 339.56 µg/mL.

**Q.** And the “instability of Nifurtimox during dissolution (in words)” value [2]?
**A.** The value was “no significant instability”.

**Q.** And the half-life [3]?
**A.** The half-life was 2.95 ± 1.19 h.

**Q.** What about the time to peak [3] of the same compound?
**A.** Its time to peak is 1 to 2 h.

**Q.** What about the “Nifurtimox degradation in dissolution samples” value [4] of the same compound?
**A.** The value was “about 25%”.
